# Test results taken from patent publication US20230093099A1, “COMPOUNDS AND METHODS OF TREATING CANCERS” (CULLGEN (SHANGHAI), INC., priority 2019, published 2023).
# Experiments:
# Type in all cases: cell-based
# HL-60 cells = assay: Cell viability assay (CellTiter-Glo) in HL-60 cells; conditions: Homo sapiens, 72 h, HL-60, APL, 3 days
# Procedure: (§1) MV4;11, RS4;11, Kasumi-1, HEL and other cells were treated with NVP-BSK805, TG101209 or selected degraders for 3 days at indicated concentrations following a 3-fold serial dilution.
# (§2) HEL, RS4;11, MV4;11, Kasumi-1 and other cells were cultured at 37° C. with 5% CO2 in RPMI 1640 or DMEM Medium supplemented with 10% fetal bovine serum. Cells were authenticated using the short tandem repeat (STR) assays. Mycoplasma test results were negative.
# (§3) Cells were seeded at a density of 5000 cells per well in 96-well assay plates and treated with test compounds following a 8-point or 12-point 3-fold serial dilution. Three days later, cell viability was determined using the CellTiter-Glo assay kit according to the manufacturer's instructions. The dose-response curves were determined and IC50 values were calculated using the GraphPad Prism software following a nonlinear regression (least squares fit) method.
# MOLT-4 cells = assay: Cell viability assay (CellTiter-Glo) in MOLT-4 cells; conditions: Homo sapiens, 72 h, MOLT-4, T-ALL, 3 days
# Procedure: as §1, §2, §3
# JAK3 = target: T1, JAK3 (Homo sapiens, UniProt P52333); assay: Immunoblot of JAK3 protein level in RS4;11 cells; conditions: immunoblot (FIG. 2)
# T1 construct: immunoblot of JAK1/2/3 proteins expressed in HEL cells; endogenous in cells; host or cells: HEL cells
# T1 sequence (P52333 1-1124): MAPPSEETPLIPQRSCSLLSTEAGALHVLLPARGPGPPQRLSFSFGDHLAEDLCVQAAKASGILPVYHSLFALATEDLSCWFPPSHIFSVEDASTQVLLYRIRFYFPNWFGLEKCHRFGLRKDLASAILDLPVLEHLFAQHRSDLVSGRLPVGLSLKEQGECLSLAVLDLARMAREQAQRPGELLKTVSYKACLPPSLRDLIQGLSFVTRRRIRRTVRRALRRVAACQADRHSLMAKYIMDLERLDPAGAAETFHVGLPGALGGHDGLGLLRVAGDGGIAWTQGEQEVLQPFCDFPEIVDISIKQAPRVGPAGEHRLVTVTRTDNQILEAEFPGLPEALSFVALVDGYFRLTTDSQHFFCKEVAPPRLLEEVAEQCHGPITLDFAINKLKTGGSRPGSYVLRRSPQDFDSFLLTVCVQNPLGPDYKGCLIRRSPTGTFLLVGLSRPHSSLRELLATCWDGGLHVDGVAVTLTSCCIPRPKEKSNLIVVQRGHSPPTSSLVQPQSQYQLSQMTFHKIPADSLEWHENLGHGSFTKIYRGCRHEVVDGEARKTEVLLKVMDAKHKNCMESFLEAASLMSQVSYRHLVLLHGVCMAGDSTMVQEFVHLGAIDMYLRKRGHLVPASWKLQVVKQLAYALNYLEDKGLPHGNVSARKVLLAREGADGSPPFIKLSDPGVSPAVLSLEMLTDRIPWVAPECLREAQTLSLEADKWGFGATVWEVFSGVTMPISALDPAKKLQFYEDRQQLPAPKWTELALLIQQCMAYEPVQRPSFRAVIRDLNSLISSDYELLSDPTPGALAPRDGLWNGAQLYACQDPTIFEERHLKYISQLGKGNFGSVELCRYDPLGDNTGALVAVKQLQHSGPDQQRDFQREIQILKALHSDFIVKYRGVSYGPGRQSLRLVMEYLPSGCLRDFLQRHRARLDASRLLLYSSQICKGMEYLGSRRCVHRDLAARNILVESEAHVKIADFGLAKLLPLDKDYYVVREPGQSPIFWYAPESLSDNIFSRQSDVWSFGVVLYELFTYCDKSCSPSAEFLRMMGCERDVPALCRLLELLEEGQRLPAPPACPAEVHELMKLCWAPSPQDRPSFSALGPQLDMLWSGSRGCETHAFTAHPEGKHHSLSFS
# Procedure: To confirm JA-189 and JA-213 are true JAK degraders, HEL cell were treated with these two compounds at various compounds concentrations.
# as §2
# Rabbit anti-JAK1 antibody (3344S), anti-JAK2 antibody (3230S), anti-JAK3 antibody (8827S), anti-TYK2 antibody (14193S), anti-FLT3 antibody (3462S), anti-RET antibody (14556S), anti-phospho-STAT3 (Tyr705) antibody (9145S) and anti-phospho-STAT5 (Tyr694) antibody (4322S) were purchased from Cell Signaling Technology. Rabbit anti-GSPT1 antibody (ab126090) was purchased from Abcam. HRP-conjugated anti-α-tubulin antibody was produced in house. Media and other cell culture reagents were purchased from Thermo Fisher. The CellTiter-Glo Luminescent Assay kit was purchased from Promega.
# Cultured cells were washed with cold PBS once and lysed in cold RIPA buffer supplemented with protease inhibitors and phosphatase inhibitors (Beyotime Biotechnology). […] Total protein concentrations in the lysates were determined by BCA assays (Beyotime Biotechnology). […] Protein bands were quantitated using the accompanied software provided by Bio-Rad.
# MM.1S cells = assay: Cell viability assay (CellTiter-Glo) in MM.1S cells; conditions: Homo sapiens, MM1.S, 72 h, Multiple Myeloma, 3 days
# Procedure: as §1, §2, §3
SMILES,IC50 (HL-60 cells),IC50 (MOLT-4 cells),JAK3 protein level (JAK3),IC50 (MM.1S cells)
CS(=O)(=O)c1ccc(-c2cccc3nc(Nc4ccc(N5CCN(CC(=O)NCCCCCCCCNc6ccc7c(c6)C(=O)N(C6CCC(=O)NC6=O)C7=O)CC5)cc4)nn23)cc1 (centres unmarked) [JA-213],19.2 nM,16.5 nM,even better activity in reducing the JAK1 and JAK3 protein levels,23.1 nM
"O=C1CCC(N2C(=O)c3ccc(NCCCCCC(=O)N4CCC(n5cc(-c6cnc7cccc(-c8cc(F)c(CN9CCOCC9)c(F)c8)c7n6)cn5)CC4)cc3C2=O)C(=O)N1 (centres unmarked) [JA-189, 5-((6-(4-(4-(8-(3,5-difluoro-4-(morpholinomethyl)phenyl)quinoxalin-2-yl)-1H-pyrazol-1-yl)piperidin-1-yl)-6-oxohexyl)amino)-2-(2,6-dioxopiperidin-3-yl)isoindoline-1,3-dione]",2.54 nM,6.36 nM,even better activity in reducing the JAK1 and JAK3 protein levels,2.27 nM
